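Grown in 96-well plates, cells were treated for 48 hours with each compound at five concentrations. Insufficient inhibition: endpoint recorded as highest concentration tested. GI50 is the concentration that inhibits growth by half. TGI: total growth inhibition.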
Experiments:
Experiment in all cases: NCI-60 cell line screen, 48 h
HS 578T breast = tested on: HS 578T breast
SF-268 CNS = tested on: SF-268 CNS
OVCAR-8 ovarian = tested on: OVCAR-8 ovarian
SK-MEL-5 melanoma = tested on: SK-MEL-5 melanoma
K-562 leukemia = tested on: K-562 leukemia
MOLT-4 leukemia = tested on: MOLT-4 leukemia
PC-3 prostate = tested on: PC-3 prostate
DU-145 prostate = tested on: DU-145 prostate
NCI-H460 lung = tested on: NCI-H460 lung
M14 melanoma = tested on: M14 melanoma
UACC-62 melanoma = tested on: UACC-62 melanoma

Compound | TGI (HS 578T breast) | TGI (SF-268 CNS) | TGI (OVCAR-8 ovarian) | TGI (SK-MEL-5 melanoma) | TGI (K-562 leukemia) | TGI (MOLT-4 leukemia) | TGI (PC-3 prostate) | TGI (DU-145 prostate) | TGI (NCI-H460 lung) | TGI (M14 melanoma) | TGI (UACC-62 melanoma) | GI50 (MOLT-4 leukemia) | GI50 (UACC-62 melanoma) | GI50 (SK-MEL-5 melanoma) | GI50 (K-562 leukemia) | GI50 (PC-3 prostate) | GI50 (NCI-H460 lung)
O=C1/C(=C/c2ccc(Cl)cc2)N=C(c2ccccc2)N1C1Nc2cc3c(cc2S1)NC(N1C(=O)/C(=C/c2ccc(Cl)cc2)N=C1c1ccccc1)S3 (configuration not stated) | > 100 µM | > 100 µM | > 100 µM | > 100 µM | > 100 µM | > 100 µM | > 100 µM | > 100 µM | > 100 µM | > 100 µM |  |  |  |  |  |  | 
O=c1oc2cccnc2n1CCN1CCN(c2ccc(Oc3ccccc3)cc2)CC1 | > 100 µM | > 100 µM | > 100 µM | > 100 µM | > 100 µM | > 100 µM | > 100 µM | > 100 µM | > 100 µM | > 100 µM |  |  |  |  |  |  | 
BrCCC[P+](c1ccccc1)(c1ccccc1)c1ccccc1 | > 79.6 µM | > 100 µM | > 100 µM | 21 µM | > 100 µM | > 94.6 µM | > 100 µM | > 100 µM | > 100 µM | > 100 µM | 64.2 µM |  |  |  |  |  | 
Fc1ccc(NCn2nc(COc3ccccc3Cl)n(/N=C/c3ccc(-c4ccc(Cl)cc4Cl)o3)c2=S)cc1Cl | > 100 µM | > 100 µM | > 100 µM | 29.9 µM | 43.6 µM | 45.5 µM | > 100 µM | > 100 µM | > 100 µM | > 100 µM |  |  |  |  |  |  | 
CC(=O)[O-].[Ni].c1ccc(/C(=N\Nc2ccccn2)c2ccccn2)cc1 | > 100 µM | 30.1 µM | 31.6 µM | 18.3 µM | 28.1 µM | 24.3 µM | 19.9 µM | 25.1 µM | 28 µM | 17.8 µM | 18.8 µM | 0.076 µM |  |  |  |  | 
COc1cc(C2c3[nH]c4ccc(F)cc4c3C[C@H]3COC(=O)N23)cc(OC)c1O (some centres not stated) | 13 µM | 64.5 µM | 39.3 µM | 34.7 µM | > 100 µM | > 100 µM | > 100 µM | 39.2 µM | 19.8 µM | 43.8 µM | 32.6 µM |  |  |  |  |  | 
CC(=O)O[C@H]1[C@@H](OC2CCCC2(c2ccccc2)c2ccccc2)O[N+]([O-])=C[C@@]12COCc1cc3c(cc12)OCO3 (some centres not stated) | > 100 µM | 14.4 µM | > 100 µM | 16.8 µM | > 23.7 µM | > 22.9 µM | 19.3 µM | > 100 µM | 31.5 µM | 37.2 µM | 25.9 µM |  |  |  |  |  | 
c1nc(SSc2ncnc3nc[nH]c23)c2[nH]cnc2n1 | > 100 µM | > 29.2 µM | > 100 µM | 37.6 µM | > 100 µM | > 40.4 µM | > 100 µM | > 100 µM | > 100 µM | > 68.7 µM | 0.0568 µM |  |  |  |  |  | 
O=c1[nH]cc(N(CCCl)CCCl)c(=O)[nH]1 | 301 µM | 192 µM | 201 µM | 115 µM | 283 µM | 28.3 µM | 188 µM | 303 µM | 155 µM | 89.9 µM | 60.6 µM |  |  |  |  |  | 
O=C1C=CC[C@H](/C=C/C[C@@H](O)C[C@H](O)/C=C/c2ccccc2)O1 | 60.2 µM | 37.7 µM | 32.9 µM | 27.4 µM | 42.3 µM | 39.6 µM | 27.8 µM | 26.3 µM | 35.3 µM | 27.4 µM | 29.4 µM |  |  |  |  |  | 
COc1cc(/C=C/c2sc3ccccc3[n+]2C)ccc1N(C)C | > 100 µM | 33.6 µM |  | 18.5 µM | 6.16 µM | 30 µM | 32.3 µM | 35 µM | 38 µM | 27.1 µM | 22.4 µM | 8.06 µM | 10.4 µM | 5.49 µM | 1.86 µM | 12.8 µM | 13.4 µM
O=C(Nc1nncs1)NS(=O)(=O)n1cnc2ccccc21 | > 100 µM | > 100 µM | > 100 µM | > 100 µM |  | > 100 µM | > 100 µM | > 100 µM | > 100 µM | > 100 µM | > 100 µM |  |  |  |  |  | 
N#CC(C#N)=Cc1ccc(C=C2SC3=C(SCCS3)S2)s1 | > 100 µM | > 100 µM | > 100 µM | > 100 µM |  | > 100 µM | > 100 µM | > 100 µM | > 100 µM | > 100 µM | > 100 µM |  |  |  |  |  | 
COCC(=O)OC1CCn2c1nc1c2C(=O)C(C)=C(NC(C)=O)C1=N (configuration not stated) | 18.8 µM | 10.3 µM | 7.19 µM | 5.92 µM | 4.59 µM | 5.2 µM | 9.01 µM | 36.7 µM | 31 µM | 15 µM | 3.34 µM |  |  |  |  |  | 
COc1ccccc1-c1nc2ccccc2c(=O)[nH]1 | > 100 µM | > 100 µM | > 100 µM | > 100 µM |  | > 100 µM | > 100 µM | > 100 µM | > 100 µM | > 100 µM | > 100 µM |  |  |  |  |  | 
CCN(CC)CCNc1ccc2ncn3c4c(OC)cccc4c(=O)c1c23 | 30.5 µM | 17.6 µM | 55.6 µM | 13.3 µM | 23.3 µM |  | 17.6 µM | 24.2 µM | 15.2 µM | 20.9 µM | 25.3 µM |  |  |  |  |  | 
Clc1ccc2c(c1)CC1C[N+]3=C(CCCC3)C1=C2 (configuration not stated) | > 100 µM | > 100 µM | > 100 µM | > 100 µM | > 100 µM | > 100 µM | > 100 µM | > 100 µM | > 100 µM | > 100 µM | > 100 µM |  |  |  |  |  | 
O=C(O)c1cncc(C(=O)O)c1 | > 100 µM | > 100 µM | > 100 µM | > 100 µM | > 100 µM | > 100 µM | > 100 µM | > 100 µM | > 100 µM | > 100 µM | > 100 µM |  |  |  |  |  | 
O=c1c[n+](-c2ccccc2)[nH]o1 | > 100 µM | > 100 µM |  | > 100 µM | > 100 µM |  | > 100 µM | > 100 µM | > 100 µM | > 100 µM | > 100 µM |  |  |  |  |  | 
CC(=O)N1CC[N+](C)(CCCCN2c3ccccc3Sc3cc(N=[N+]=[N-])ccc32)CC1 | > 100 µM | > 100 µM | > 100 µM | > 100 µM | > 100 µM | > 100 µM | > 100 µM | > 100 µM | > 100 µM | > 100 µM | > 100 µM |  |  |  |  |  | 

From PubChem BioAssay (NCI)
